The values below come from patent US20040219098A1, “Methods for the treatment of tumors” (priority 2003, published 2004).

In assay [1] the test system is JJ5 Breast Cancer cells. Description: Cytotoxicity (colony-forming) assay against JJ5 breast cancer cells. In kind it is cell-based, human. As to conditions: 14 days. The procedure:
JJ5 breast cancer cells were incubated with increasing amounts EGF-^111In-labeled transferrin composition or ^111In-oxine, centrifuged to remove free ligand, assayed and then seeded into 50 mm culture dishes. The number of cells seeded was varied from 3×10^4 to 3×10^6 cells to obtain approximately 400 viable colonies/dish taking into account the plating efficiency and the expected level of cytotoxicity. Control dishes contained JJ5 breast cancer cells which were incubated with normal saline. Growth medium was added and the cells were cultured at 37° C./5% CO^2 for 14 days. The growth medium was removed and the colonies were stained with methylene blue (1% in a 1:1 mixture of ethanol and water) then washed twice. The number of colonies per dish was counted using a manual colony counter (Manostat Corp). The plating efficiency was calculated by dividing the number of colonies observed by the number of cells seeded in each dish. The surviving fraction at increasing amounts of EGF-^111In-labeled transferrin composition or ^111In-oxine was calculated by dividing the plating efficiency for dishes containing treated cells with that observed for control dishes with normal saline.
Using a colony-forming assay, the radiotoxicity of internalization for JJ5 breast cancer cells was evaluated.

The subject of assay [2] is JJ5 Breast Cancer cells. The experiment in a line: Growth inhibition assay against JJ5 breast cancer cells. In kind it is cell-based, human. Particulars: cultured 4 days. Here is the method: JJ5 breast cancer cells (prepared from BCBM JJ5) expressing approximately 10^6 epidermal growth factor receptors/cell were incubated with EGF-^111In-labeled transferrin composition, unlabeled hEGF or ^111In-oxine, centrifuged to remove free ligand, then assayed and seeded (10^6 cells/dish) into 35 mm culture dishes. Growth medium was added and the cells were cultured at 37° C./5% CO^2 for 4 days. The cells were then recovered by trypsinization and counted in a hemocytometer. Control dishes contained cells cultured in growth medium containing ^111In-DTPA or growth medium alone.

The test system of assay [3] is JJ5 Breast Cancer cells. The experiment in a line: Binding of EGF-111In-labeled transferrin composition to breast cancer cells (radioligand binding, kinetics, retention, internalization). On the set-up: species or system human. As to conditions: for binding / internalization by cancer cells (in words): JJ5 breast cancer cells. The text has this:
Breast cancer cells express up to 100-fold higher levels of EGFR than do normal epithelial tissues. EGFR expression in breast cancer bone metastasis biopsies ranged from 1-1300 fmol/mg membrane protein (approximately 400-1,000,000 receptors/cell) and was associated with high relapse rates and poor long term survival. Normal epithelial cells express <10^4 receptors/cell. For the normal breast cell line HBL-100, 8000 EGFR/cell has been reported. The expression of EGFR in breast cancer cell lines has a reported range of 800 EGFR/cell for MCF-7 cells to 10^6 EGFR/cell for MDA-MB-468 cells. […] Utilizing the Auger electron emitter In was used in the initial experiments to illustrate the utility of the invention using EGF-^111In-labeled transferrin compositions. The EGF-^111In-labeled transferrin (0.25-80 ng) was incubated with 1.5×10^6 cells/dish JJ5 Breast Cancer (prepared from BCBM JJ5) cells in 1 mL of 0.1% human serum albumin in 35 mm multiwell culture dishes at 37° C. for 30 minutes. The cells were transferred to a centrifuge tube and centrifuged. The cell pellet was separated from the supernatant and counted in a g-scintillation counter to determine bound (B) and free (F) radioactivity. Non-specific binding was determined by conducting the assay in 100 nM hEGF. The kinetics of binding was determined by incubating 1 ng of EGF-^111In-labeled transferrin composition with 3×10^6 JJ5 Breast Cancer cells at 37° C. and determining the proportion of radioactivity bound to the cells at various times up to 24 hours. Internalized fraction was measured by determining the proportion of radioactivity which could not be displaced from the cell surface by 100 nM hEGF. Cell-associated binding (surface-binding and intracellular accumulation) was expressed as a percentage of medium radioactivity bound per mg of cell study protein.
EGF-^111In-labeled transferrin composition was rapidly bound by the breast cancer cells and retained for at least 24 hours. Over a 24 hour period at 37° C., <8% was lost from the cells in vitro.

Turning to `[In+3].[O-]c1cccc2cccnc12.[O-]c1cccc2cccnc12.[O-]c1cccc2cccnc12` [^111In oxine, reference compound], in assay [1] (<6 pCi/cell), the cell killing entry is listed as “greater than 99%”. Moreover, the “growth inhibition of the JJ5 cells compared to the medium control” value in assay [2] (3.5 pCi/cell) is reported as 91%.

In the case of “EGF-^111In-labeled transferrin composition: human epidermal growth factor (EGF) operatively linked via linker-biotin/streptavidin to 111In-radiolabeled human transferrin”, the “time retained by the breast cancer cells” value in assay [3] (37° C., in vitro) is “at least 24 hours”. Further, the “binding / internalization by cancer cells (in words)” value in assay [3] is given as “rapidly bound”; in assay [3] (listed as EGF-^111In-labeled transferrin compostions) it was “rapidly internalized”. In assay [3] (association (affinity) constant, 37° C., 30 minutes, non-specific binding in 100 nM hEGF), the “affinity constant for binding to JJ5 cells” value turned out to be 8e+08 L/mol. In assay [3] (over a 24 hour period at 37° C., in vitro), the “111In radioactivity lost from the cells” value is listed as under 8%. The “reduction in cell survival” value in assay [1] (8 pCi/cell) was 99%. Further, the “growth inhibition of the JJ5 cells compared to the medium control” value in assay [2] (3.4 pCi/cell) was 83%.
